# Laboratory results: patent US7781594B2, “5-(4-methanesulfonyl-phenyl)-thiazole derivatives for the treatment of acute and chronic inflammatory diseases” (Faes Farma, S.A., priority 2008, dated 2010)
# Key:
# Assay type in all cases: cell-based, human
# [1] = system: PBMC from healthy volunteers; assay: Proliferative response of PBMC, 3H-thymidine incorporation; conditions: absence or presence of PHA, PHA plus IL-2, or anti-CD3 + anti-CD28, 4 days, FIGS. 11a and 11b
# Experimental: Faced against a mitogen stimulation, lymphocytes suffer a blastogenesis and cellular differentiation process. The method used to quantify the cellular proliferation was the assay of the incorporation of ^3[H]-Thymidine to the DNA de novo synthesized, and the emission of betha-radiation from the cellular cultures dried extracts (to which the tritiated base was added) was detected before its ending and harvesting. In the different experiments performed to study the proliferation, the purified cellular preparations were incubated in 96 microwells plain bottom plates at concentrations of 5×10^4 cells/well (200 μl final volume), in the presence of different concentrations of various mitogens with triplicate repetitions and along 4 days of culture.
# The response to a specific stimuli depended on the density and cell type studied, as well as of the culture time and of the mitogenic agent concentration. […]
# PBMC was cultured during 4 days (50,000 cells per well) at 37° C. and 5% CO2 atmosphere (Cell incubator HERA Cell 150, Thermoscientific, Thermoelectron, 63505 Lagenselbold, GE) in complete culture medium. […] The DNA-incorporated radioactive was quantified by using a betha particles counter Wallac Oy.
# IFN-gamma [2] = assay: IFN-gamma production by PBMC from patients with rheumatoid arthritis, CBA
# Experimental: (§1) CBA protocol was followed according to the manufacturer's instructions. The election of microparticles was performed following the summary of FIG. 1.
# (§2) The acquisition on samples was performed with the BD FACS Array Bioanalyser System (FACSArray, Becton Dickinson, San José, Calif., USA) and the analysis of the results was completed with the software FCAP Array (Becton Dickinson) in a PC computer.
# (§3) Briefly, the experimental protocol consisted of a plate pre-washing out with Wash Buffer. After decantation, the mixture of capture microparticles was re-suspended in the vortex. Standards and samples were added in the adequate dilution. After permanent stirring incubation during 1 h, the PE detection reagent was added and incubated again during 2 h at room temperature. […]
# PBMC (5×10^4 cells/well) from 7 patients with rheumatoid arthritis were cultured in duplicate 200 μl of complete medium supplement with the highest solvent concentration (10^−6 M), and 10^−6 M, 10^−7 M and 10^−8 M of compound 12, in the presence and absence either of LPS (10 μg/ml), or anti-CD3 (12.5 ng/ml)+anti-CD28 (⅓×10^5), during 24 hours. Culture supernatants were frozen at −20° C. and IFN-gamma concentration was assessed by BD FACS Array Bioanalyser by using CBA Flex Set, specific to determine IFN-gamma concentration, following the manufacturer instructions.
# IL-10 = IL-10 production by PBMC from patients with rheumatoid arthritis, CBA
# Experimental: as §1, §2
# Briefly, the experimental protocol consisted of a plate pre-washing out with Wash Buffer. After decantation, the mixture of capture microparticles was re-suspended in the vortex. Standards and samples were added in the adequate dilution. After permanent stirring incubation during 1 h, the PE detection reagent was added and incubated again during 2 h at room temperature. After a washing-out, the acquisition was performed in the flow cytometer.
# On the other hand, PBMC (5×10^4 cells per well) from 8 patients with rheumatoid arthritis were cultured in duplicate in 200 μl of complete medium supplemented with the highest solvent concentration (10^−6 M), and 10^−6 M, 10^−7 M and 10^−8 M of compound 12 in the presence and absence of either LPS (10 μg/ml) or anti-CD3 (12.5 ng/ml), +anti-CD28 (⅓×10^5), during 24 hours. […]
# IFN-gamma [3] = assay: IFN-gamma production by PBMC from healthy volunteers, CBA
# Experimental: as §1, §2, §3
# PBMC (5×10^4 cells per well) from 13 healthy volunteers were cultured in duplicate in 200 μl of complete medium supplemented with the highest solvent concentration (10^−6 M), and 10^−6 M, 10^−7 M and 10^−8 M of compound 12 in the presence or absence, either of LPS (10 μg/ml), or anti-CD3 (12.5 ng/ml)+anti-CD28 (⅓×10^5), during 24 hours. Culture supernatants were frozen at −20° C. and the concentration of IFN-gamma was quantified by BD FACS Array Bioanalyser by using CBA Flex Set (Becton Dickinson), specific to determine the concentration of IFN-gamma, following the manufacturer instructions.
# TNF-alpha = TNF-alpha production by PBMC from patients with rheumatoid arthritis, CBA
# Experimental: as §1, §2
# Briefly, the experimental protocol consisted of a plate pre-washing out with Wash Buffer. After decantation, the mixture of capture microparticles was re-suspended in the vortex. Standards and samples were added in the adequate dilution. […]
# In another experiment, PBMC (5×10^4 cells per well) from 7 patients with rheumatoid arthritis were cultured in duplicate in 200 μl of complete medium supplemented with the highest solvent (10^−6 M), and 10^−6 M, 10^−7 M and 10^−8 M compound 12 and in the presence and absence of either LPS (10 μg/ml), or anti-CD3 (12.5 ng/ml) (Orthoclone OKT3, Orthopharmaceutical Corporation, Raritan N.J., USA)+anti-CD28 (⅓×10^5) (Clon 15E8, Menarini, Madrid, Spain), during 24 hours. Culture supernatants were frozen at −20° C. and the concentration of TNF-alpha quantified by BD FACS Array Bioanalyser by using CBA Flex Set (Becton Dickinson), specific for determining the concentration of that cytokine, following the manufacturer instructions.
smiles,measurement,setting,value
"Cc1nc(OC2CCCC2)c(-c2ccc(S(C)(=O)=O)cc2)s1 [Compound 12, 4-cyclopentyloxy-5-(4-methylsulfonyl-phenyl)-2-methyl-thiazole]",Effect on the proliferative response of PBMC,[1],did not significantly modify
same,Effect on IFN-gamma production by PBMC stimulated with anti-CD3 and anti-CD28,"IFN-gamma [2]; patients with rheumatoid arthritis, 10^−6 M, 10^−7 M and 10^−8 M, p<0.05, FIG. 6",significantly lowered
same,"Effect on IFN-gamma secretion by PBMC, spontaneous or LPS-induced",IFN-gamma [2]; printed 'from healthy volunteers' in the paragraph on patients with rheumatoid arthritis,modified neither the spontaneous IFN-gamma secretion nor the LPS-induced
same,"Effect on IL-10 production by PBMC, spontaneous or anti-CD3 and anti-CD28 stimulated",IL-10,no significant effects
same,Effect on IL-10 production after stimulation with LPS,"IL-10; 10^−8, p<0.05, FIG. 10",significantly inhibited
same,"Effect on IFN-gamma production by PBMC, LPS-stimulated or anti-CD3 and anti-CD28 stimulated","IFN-gamma [3]; 10^−6 M, p<0.05, FIG. 5",significantly inhibited
same,Effect on spontaneous secretion of IFN-gamma by PBMC,IFN-gamma [3]; no stimulus,not modified
same,"Effect on TNF-alpha production by PBMC, spontaneous or anti-CD3 and anti-CD28 stimulated",TNF-alpha,neither inhibited the spontaneous TNF-alpha production nor the one obtained after stimulation with monoclonal antibodies anti-CD3 and anti-CD28
same,Effect on TNF-alpha production in LPS-stimulated PBMC,"TNF-alpha; 10^−6 M, p<0.05, FIG. 4",significantly inhibited
